Among the data in ChEMBL document CHEMBL3232826 are CC50 and selectivity ratio values, retold here.

Structures can show the parent of a compound that is named as a salt. Where only a bound is given, the exact number is not on record here.

Series [1] in a line: Cytotoxicity against MDCK cells assessed as cell viability after 48 hrs by MTT assay. To be noted: dog, read-out: CTD50. In kind it is cell-based, Canis lupus familiaris. (Formazan colour is commonly taken as a measure of viable cells.)
Series [2] can be described thus: in vitro. To be noted: dog, MDCK cells.
Description: Selectivity index, ratio of CTD50 for MDCK cells to ED50 for Influenza A virus (A/California/07/09(H1N1)) pdm09

With `CC1(C)[C@@H]2CC[C@@]1(C)/C(=N/CCC/N=C1\C[C@H]3CC[C@]1(C)C3(C)C)C2`, in series [1], the CC50 at 48 h is 284 µM. Besides, in series [2], the selectivity ratio was 30.

With `CC1(C)[C@@H]2CC[C@@]1(C)/C(=N/CCCCCC/N=C1\C[C@H]3CC[C@]1(C)C3(C)C)C2`, the CC50 at 48 h in series [1] amounted to 1350 µM. In addition, the selectivity ratio in series [2] stood at 89.

Turning to `CC1(C)[C@@H]2CC[C@@]1(C)/C(=N/CCCCCCC/N=C1\C[C@H]3CC[C@]1(C)C3(C)C)C2`, the CC50 at 48 h in series [1] was determined as 1260 µM. Further, in series [2], the selectivity ratio came to 55.

As to `CC1(C)[C@@H]2CC[C@@]1(C)/C(=N/CCCCCCCC/N=C1\C[C@H]3CC[C@]1(C)C3(C)C)C2`, the CC50 at 48 h in series [1] was 390 µM. For the same compound, in series [2], the selectivity ratio was found to be 16.

Regarding `CC1(C)[C@@H]2CC[C@@]1(C)/C(=N/CCCCCCCCCCCC/N=C1\C[C@H]3CC[C@]1(C)C3(C)C)C2`, in series [1], the CC50 at 48 h worked out at 2220 µM. In series [2], the selectivity ratio turned out to be 49.

In the case of `CC1(C)[C@@H]2CC[C@@]1(C)/C(=N/c1ccc(Cc3ccc(/N=C4\C[C@H]5CC[C@]4(C)C5(C)C)cc3)cc1)C2`, the CC50 at 48 h in series [1] was more than 1070 µM. In series [2], the selectivity ratio was 3.

For `CC1(C)[C@@H]2CC[C@@]1(C)/C(=N/c1ccc(Oc3ccc(/N=C4\C[C@H]5CC[C@]4(C)C5(C)C)cc3)cc1)C2`, the CC50 at 48 h in series [1] is more than 1070 µM. Besides, the selectivity ratio in series [2] is 3.

As to `CC1(C)[C@@H]2CC[C@@]1(C)[C@H](NCCCCCCN[C@@H]1C[C@H]3CC[C@]1(C)C3(C)C)C2`, the CC50 at 48 h in series [1] worked out at 5.4 µM. Besides, in series [2], the selectivity ratio came out at 7.

With `CC1(C)[C@@H]2CC[C@@]1(C)[C@H](NCCCCCCCN[C@@H]1C[C@H]3CC[C@]1(C)C3(C)C)C2`, the CC50 at 48 h in series [1] is 10.4 µM. In addition, the selectivity ratio in series [2] was found to be 3.

On to `CC1(C)[C@@H]2CC[C@@]1(C)[C@H](NCCCCCCCCCCCCN[C@@H]1C[C@H]3CC[C@]1(C)C3(C)C)C2`, for which the CC50 at 48 h in series [1] stood at 14.4 µM. Also, in series [2], the selectivity ratio amounted to 3.

On to `CC1(C)[C@@H]2CC[C@@]1(C)[C@H](Nc1ccc(Cc3ccc(N[C@@H]4C[C@H]5CC[C@]4(C)C5(C)C)cc3)cc1)C2`, for which the CC50 at 48 h in series [1] was more than 638 µM. Further, the selectivity ratio in series [2] worked out at 4.

In the case of `CC1(C)[C@@H]2CC[C@@]1(C)[C@H](Nc1ccc(Oc3ccc(N[C@@H]4C[C@H]5CC[C@]4(C)C5(C)C)cc3)cc1)C2`, in series [1], the CC50 at 48 h was more than 636 µM. In addition, the selectivity ratio in series [2] was determined as 3.

With `CN(CCCCCCN(C)[C@@H]1C[C@H]2CC[C@]1(C)C2(C)C)[C@@H]1C[C@H]2CC[C@]1(C)C2(C)C`, in series [1], the CC50 at 48 h turned out to be 110 µM. Further, in series [2], the selectivity ratio came to 1.

Regarding `CN(CCCCCCCN(C)[C@@H]1C[C@H]2CC[C@]1(C)C2(C)C)[C@@H]1C[C@H]2CC[C@]1(C)C2(C)C`, in series [1], the CC50 at 48 h was found to be 698 µM. For the same compound, the selectivity ratio in series [2] came to 17.

With `CC1(C)[C@@H]2CC[C@@]1(C)/C(=N/c1ccc(Cc3ccc(N)cc3)cc1)C2`, in series [1], the CC50 at 48 h is 30.1 µM. The selectivity ratio in series [2] was 2.

`CC1(C)[C@@H]2CC[C@@]1(C)/C(=N/c1ccc(Oc3ccc(N)cc3)cc1)C2`: the CC50 at 48 h in series [1] amounted to 32.9 µM. Further, the selectivity ratio in series [2] is 8.

Regarding `CC(N)C1CC2CCC1C2` (stereo unspecified), the CC50 at 48 h in series [1] stood at 1270 µM.

Regarding `NC12CC3CC(CC(C3)C1)C2` [AMANTADINE], in series [2], the selectivity ratio turned out to be 4.

As to `CC1(C)C2CC[C@@]1(C)C(=O)C2` [CAMPHOR], the selectivity ratio in series [2] was 2.

For the compound `CC(N)C12CC3CC(CC(C3)C1)C2` (stereo unspecified) [RIMANTADINE HYDROCHLORIDE], the selectivity ratio in series [2] is 5.
